From ChEMBL document CHEMBL1201862, “PubChem BioAssay data set” (2004)
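Step 1: Grow cells in 96-well plates. Step 2: Expose to compound for 48 hours at 5 concentrations. Step 3: Interpolate endpoints linearly; if unreached, use highest concentration. The concentration for 50% growth inhibition is given as GI50.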 The source made the active and inactive calls. Rule as the data show it: active = GI50 up to about 1.1 µM and inactive = higher.

Key:
Assay in all cases: NCI tumour cell line growth inhibition, 48 h
[1] = tested on: MOLT-4
[2] = tested on: 786-0
[3] = tested on: K562
[4] = tested on: LOX IMVI
[5] = tested on: NCI-H522
[6] = tested on: OVCAR-5
[7] = tested on: SF-539
[8] = tested on: SR
[9] = tested on: OVCAR-4
[10] = tested on: MDA-N
[11] = tested on: HOP-62
[12] = tested on: ACHN
[13] = tested on: OVCAR-8
[14] = tested on: SNB-19
[15] = tested on: MDA-MB-231
[16] = tested on: KM12
[17] = tested on: SK-MEL-2
[18] = tested on: HT-29
[19] = tested on: BT-549
[20] = tested on: OVCAR-3

Measured: GI50

C[C@]12CC[C@@H]3c4ccc(O)cc4CC[C@H]3[C@@H]1C/C(=C\c1ccc(C#N)cc1)C2=O
inactive: [1] 23.5 µM | [2] 35.7 µM | [3] > 100 µM | [4] 40.8 µM | [5] 17.4 µM | [6] 71.8 µM | [7] 36.5 µM | [8] 50 µM | [9] 40.5 µM | [10] 25 µM | [11] 40.4 µM | [12] 64 µM | [13] 55.5 µM | [14] 52.4 µM | [15] 23.3 µM | [16] 23.1 µM | [17] 28.8 µM | [18] 24.9 µM | [19] 48.2 µM | [20] 21.9 µM

COC(=O)/C=c1/c2ccccc2n2nc3ccccc3c12
inactive: [1] 6.01 µM | [2] 27.6 µM | [3] 51.4 µM | [4] 36.9 µM | [5] 29 µM | [6] > 100 µM | [7] 26.6 µM | [8] 4.03 µM | [9] 23 µM | [10] 30.8 µM | [11] > 100 µM | [12] > 100 µM | [13] > 100 µM | [14] 82.4 µM | [15] 16.4 µM | [16] 27.5 µM | [17] 74.6 µM | [18] 38.9 µM | [19] > 100 µM | [20] > 100 µM

COc1ccc(S(=O)(=O)NC(CCC(=O)NC(N)=O)C(=O)NC(N)=O)cc1 (centres undefined)
inactive: [1] > 100 µM | [2] > 100 µM | [3] > 100 µM | [4] > 100 µM | [5] > 100 µM | [6] > 100 µM | [7] > 100 µM | [8] > 100 µM | [9] > 100 µM | [10] > 100 µM | [11] > 100 µM | [12] > 100 µM | [13] > 100 µM | [14] > 100 µM | [15] > 100 µM | [16] > 100 µM | [17] > 100 µM | [18] > 100 µM | [19] > 100 µM | [20] > 100 µM

CC(=O)Nc1cc2cc(NS(=O)(=O)c3ccc(Cl)c(Cl)c3)ccc2oc1=O
inactive: [1] 27.4 µM | [2] 17.4 µM | [3] 56.5 µM | [4] 20 µM | [5] 23.4 µM | [6] > 100 µM | [7] 25.1 µM | [8] 33.9 µM | [9] 30.3 µM | [10] 51.8 µM | [11] 19.8 µM | [12] 42 µM | [13] 17.8 µM | [14] 34.4 µM | [15] 17.2 µM | [16] 25.1 µM | [17] 20.3 µM | [18] 35.3 µM | [19] 49.1 µM | [20] > 100 µM

O=C(Nn1cnn2c(=O)c3ccccc3nc2c1=O)c1ccccc1
inactive: [2] > 100 µM | [3] > 100 µM | [4] > 100 µM | [5] > 100 µM | [6] > 100 µM | [7] > 100 µM | [8] > 100 µM | [9] > 100 µM | [10] > 100 µM | [11] > 100 µM | [12] > 100 µM | [13] > 100 µM | [14] > 100 µM | [15] > 100 µM | [16] > 100 µM | [17] > 100 µM | [18] > 100 µM | [19] > 100 µM | [20] > 100 µM
